From the supplement of paper PMC11208160

Assay: recombinant barcode read abundance after kanamycin selection (control-corrected) (log10(CPM+1)); higher = more efficient recombination; sequences stand for … in AGTGCAGAGAAAATCGGCCAGTTTTCTCTGCCTGCAGTCCGCATGCCGT…AGATTTATGCAGCGGACTGCCTTTCTCCCAAAGTGATAAACCGGACAGTATCATGGACCGGTTTTCCCGGTAATCCGTATTTGCAAGGTTGGTTTCACT; site = the 11-nt target
How it was run: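 IS621 bridge RNA target-binding loops were paired with targets in a pooled library tested in E. coli. After co-electroporation with a donor plasmid, cells were plated in two replicates on chloramphenicol/ampicillin LB agar (control) and on chloramphenicol/ampicillin/kanamycin carrying 0.1 mM IPTG. Barcodes at recombinant junctions were counted as counts per million, averaged and control-corrected to give recombination efficiency. Values are log10(CPM+1).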
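Also: IS621 recombinase and bridge RNA in Escherichia coli cells.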

| Sequence | recombinant barcode read abundance (log10) |
| --- | --- |
| GTGAGGTCTTGGGTTCTAACCTGTTGCAT (site GTGAGGTCTAG) | 0.375 |
| GTGAGGTCTTGGGTTCTAACCTGTTGCAT (site GTGAGGTCTAT) | 2.71 |
| GTGAGGTCTTGGGTTCTAACCTGTTGCGT (site GTGAGGTCTAA) | 0.231 |
| GTGAGGTCTTGGGTTCTAACCTGTTGCGT (site GTGAGGTCTAC) | 2.08 |
| GTGAGGTCTTGGGTTCTAACCTGTTGCGT (site GTGAGGTCTAG) | 0.586 |
| GTGAGGTCTTGGGTTCTAACCTGTTGCGT (site GTGAGGTCTAT) | 1.69 |
| GTGCAAACTTGGGTTCTAACCTGTTGCCT (site GTGCAAACTAG) | 1.23 |
| GTGCAAACTTGGGTTCTAACCTGTTGCCT (site GTGCACACTTG) | 0.0968 |
| GTGCTTACTTGGGTTCTAACCTGTTGCCT (site GAGCTTACTAG) | 0.0771 |
| GTGCTTACTTGGGTTCTAACCTGTTGCCT (site GCGCTTACTAG) | 0.0397 |
| GTGCTTACTTGGGTTCTAACCTGTTGCCT (site GGGCTTACTAG) | 0.0436 |
| GTGCTTACTTGGGTTCTAACCTGTTGCCT (site GTGCTTACTAG) | 0.538 |
| GTGGCTTCTTGGGTTCTAACCTGTTGCCT (site GAGGCTTCTAG) | 0.128 |
| GTGGCTTCTTGGGTTCTAACCTGTTGCCT (site GCGGCTTCTAG) | 0.248 |
| GTGGCTTCTTGGGTTCTAACCTGTTGCCT (site GGGGCTTCTAG) | 0.132 |
| GTGGCTTCTTGGGTTCTAACCTGTTGCCT (site GTGGCTTCTAG) | 0.389 |
| GTGTACCCTTGGGTTCTAACCTGTTGCGG (site GTGTACCCTAC) | 1.94 |
| GTGTACCCTTGGGTTCTAACCTGTTGCGG (site GTGTACCCTCC) | 1.93 |
| GTGTACCCTTGGGTTCTAACCTGTTGCGG (site GTGTACCCTGC) | 0.161 |
| GTGTACCCTTGGGTTCTAACCTGTTGCGG (site GTGTACCCTTC) | 0.253 |

| Sequence | recombinant barcode read abundance (log10) |
| --- | --- |
| GTGTAGTCTTGGGTTCTAACCTGTTGCCG (site GTGTAGGCTCT) | 0.254 |
| GTGTAGTCTTGGGTTCTAACCTGTTGCCG (site GTGTAGTCTCG) | 1.19 |
| GTGTCACCTTGGGTTCTAACCTGTTGCCT (site GTGTCAACTAG) | 0.205 |
| GTGTCACCTTGGGTTCTAACCTGTTGCCT (site GTGTCACCTAG) | 1.52 |
| GTGTCACCTTGGGTTCTAACCTGTTGCCT (site GTGTCAGCTAG) | 0.00534 |
| GTGTCACCTTGGGTTCTAACCTGTTGCCT (site GTGTCATCTAG) | 0.091 |
| GTGTCTCCTTGGGTTCTAACCTGTTGCCT (site ATGTCTCCTAG) | 0.233 |
| GTGTCTCCTTGGGTTCTAACCTGTTGCCT (site CTGTCTCCTAG) | 0.103 |
| GTGTCTCCTTGGGTTCTAACCTGTTGCCT (site GTGTCTCCTAG) | 0.962 |
| GTGTCTCCTTGGGTTCTAACCTGTTGCCT (site TTGTCTCCTAG) | 0.22 |
| GTGTGAGCTTGGGTTCTAACCTGTTGCCG (site GTACGAGCTCG) | 0.269 |
| GTGTGAGCTTGGGTTCTAACCTGTTGCCG (site GTGTGAGCTCG) | 1.74 |
| GTGTGTCCTTGGGTTCTAACCTGTTGCCT (site GTGTGTACTAG) | 0.0295 |
| GTGTGTCCTTGGGTTCTAACCTGTTGCCT (site GTGTGTCCTAG) | 1.31 |
| GTGTGTCCTTGGGTTCTAACCTGTTGCCT (site GTGTGTGCTAG) | 0.155 |
| GTGTGTCCTTGGGTTCTAACCTGTTGCCT (site GTGTGTTCTAG) | 0.108 |
| GTTACCGCTTGGGTTCTAACCTGTTGCCT (site GTAACCGCTAG) | 0.602 |
| GTTACCGCTTGGGTTCTAACCTGTTGCCT (site GTCACCGCTAG) | 0.345 |
| GTTACCGCTTGGGTTCTAACCTGTTGCCT (site GTGACCGCTAG) | 0.0865 |
| GTTACCGCTTGGGTTCTAACCTGTTGCCT (site GTTACCGCTAG) | 1.64 |

| Sequence | recombinant barcode read abundance (log10) |
| --- | --- |
| GTTACGTCTTGGGTTCTAACCTGTTGCTT (site AGTACGTCTAA) | 0.115 |
| GTTACGTCTTGGGTTCTAACCTGTTGCTT (site GTTACGTCTAA) | 0.285 |
| GTTAGACCTTGGGTTCTAACCTGTTGCCT (site GTTAGACCTAG) | 0.949 |
| GTTAGACCTTGGGTTCTAACCTGTTGCCT (site TGCCTCTCTTA) | 0.0193 |
| GTTCAGCCTTGGGTTCTAACCTGTTGCCT (site GTCGAGCCTAG) | 0.0107 |
| GTTCAGCCTTGGGTTCTAACCTGTTGCCT (site GTTCAGCCTAG) | 0.611 |
| GTTCCAGCTTGGGTTCTAACCTGTTGCCT (site AGCAGCCCTCT) | 0.0192 |
| GTTCCAGCTTGGGTTCTAACCTGTTGCCT (site GTTCCAGCTAG) | 0.792 |
| GTTCCATCTTGGGTTCTAACCTGTTGCCT (site GATCCATCTAG) | 0.172 |
| GTTCCATCTTGGGTTCTAACCTGTTGCCT (site GCTCCATCTAG) | 0.28 |
| GTTCCATCTTGGGTTCTAACCTGTTGCCT (site GGTCCATCTAG) | 0.216 |
| GTTCCATCTTGGGTTCTAACCTGTTGCCT (site GTTCCATCTAG) | 0.601 |
| GTTCCGGCTTGGGTTCTAACCTGTTGCCT (site GTTACGGCTAG) | 0.139 |
| GTTCCGGCTTGGGTTCTAACCTGTTGCCT (site GTTCCGGCTAG) | 0.834 |
| GTTCCGGCTTGGGTTCTAACCTGTTGCCT (site GTTGCGGCTAG) | 0.145 |
| GTTCCGGCTTGGGTTCTAACCTGTTGCCT (site GTTTCGGCTAG) | 0.373 |
| GTTCCTACTTGGGTTCTAACCTGTTGCCT (site GATCCTACTAG) | 0.215 |
| GTTCCTACTTGGGTTCTAACCTGTTGCCT (site GCTCCTACTAG) | 0.00954 |
| GTTCCTACTTGGGTTCTAACCTGTTGCCT (site GGTCCTACTAG) | 0.133 |
